# Read-outs that look alike come from different tables or passages of the source.
# Legend:
# Assay type in all cases: cell-based, human
# [1] = system: MDA Breast Cancer Cell Line; assay: MTT cytotoxicity assay, transfected MDA cells plus chemotherapeutic drug; conditions: for IC50: Homo sapiens; for IC50 / EC50 / fold change of EC50, Prohibitin vs Control: MDA cells; for sensitivity to drug of prohibitin siRNA treated cells compared to mock-treated cells: FIG. 9A-9H
# Description: (§1) For a typical siRNA transfection, 1 nmole of the annealed siRNA duplex was mixed with 1.4 ml of Opti-MEM reagent (Invitrogen). In another tube, […] of Oligofectamine reagent (Invitrogen, Carlsbad, Calif.) was mixed with […] of Opti-MEM. The two solutions were combined and mixed gently by inversion and incubated for 20 min. at RT. The resulting solution was added to the cultured cells drop by drop in a 10 cm dish (cells are approximately 40-50% confluent). The next day the transfected cells were trypsinized and seeded in 6 or 96-well plates and further incubated for the indicated amount of time (assay dependent) before further analysis.
# (§2) RNA-transfected cells were seeded in triplicate into 96-well plates at 5×10^3 cells/well 48 hrs post-transfection. The cells were incubated for an additional 16 to 24 hrs before they were exposed to increasing concentrations of cytotoxic drugs. […] Appropriate dilutions were made in the respective media for each cell line. Following addition of drugs, incubation was continued for an additional 72 hrs. […] of MTT dye (5 mg/ml) were added into each well and the plate was further incubated at 37° C. for 4 hrs. The dye was solubilized with 10% Triton X-100, 0.01 N HCl and further incubated at 37° C. in the dark for 30 min. Cell viability was determined by measure of absorption at 570 nm in a Wallac multiwell plate reader (PerkinElmer, Inc., Boston, Mass.). The averages of triplicate wells were plotted using the Prism software (GraphPad Software, Inc., San Diego, Calif.).
# [2] = system: MCF-7 Breast Cancer Cell Line; assay: MTT cytotoxicity assay, transfected MCF-7 cells plus chemotherapeutic drug; conditions: for sensitivity to drug of prohibitin siRNA treated cells: MCF-7, FIGS. 15A-15H; for fold change of EC50, Prohibitin vs Control: direction IS/IR in same cell (E42)
# Description: as §1
# as §2, with “Cell survival was determined using the MTT cytotoxicity assay (see, e.g., Tokuyama et al. (2005) Anticancer Res. 25(1A): 17-22). RNA-transfected” for “RNA-transfected”, “drugs. Doxorubicin (adriamycin), cisplatinum, taxol, vinblastin, vincristin, and mitoxantrone were all purchased from Sigma Corp. (St. Louis, Mo.).” for “drugs.”
# Cell survival was determined as described in Example 3 above.
# [3] = system: SKOV3 Ovarian Cancer Cell Line; assay: MTT cytotoxicity assay, transfected SKOV3 cells plus chemotherapeutic drug; conditions: for IC50: Homo sapiens, SK-OV-3, SKOV3 cells, mock-transfected control, read-out: EC50, Control; for EC50 / fold change of EC50, Prohibitin vs Control: SKOV3 cells; for EC50: prohibitin (siRNA) transfected, read-out: EC50, Prohibitin; for fold change of EC50, Prohibitin vs Control: direction IS/IR in same cell (E54)
# Description: as §1, §2
# Each table summarizes the results of an individual experiment performed in triplicate.
# [4] = mock-transfected control, Table 3 experiment, read-out: EC50, Control
# [5] = mock-transfected control, Table 4 experiment, read-out: EC50, Control
# [6] = mock-transfected control, Table 7 experiment, read-out: EC50, Control
# [7] = mock-transfected control, Table 8 experiment, read-out: EC50, Control
# [8] = prohibitin (siRNA) transfected, Table 3 experiment, read-out: EC50, Prohibitin
# [9] = prohibitin (siRNA) transfected, Table 4 experiment, read-out: EC50, Prohibitin
# [10] = prohibitin (siRNA) transfected, Table 7 experiment, read-out: EC50, Prohibitin
# [11] = prohibitin (siRNA) transfected, Table 8 experiment, read-out: EC50, Prohibitin
# [12] = Table 3 experiment, direction IS/IR in same cell (E6)
# [13] = Table 4 experiment, direction IS/IR in same cell (E12)
# [14] = Table 8 experiment, direction IS/IR in same cell (E36)
# [15] = MCF-7 cells, prohibitin (siRNA) transfected, Table 9, read-out: EC50, Prohibitin
# [16] = Homo sapiens, MCF7, MCF-7 cells, prohibitin (siRNA) transfected, Table 9, read-out: EC50, Prohibitin
Compound,"IC50 [1, 4]","IC50 [1, 5]","IC50 [1, 6]","IC50 [1, 7]","EC50 [1, 8]","EC50 [1, 9]","EC50 [1, 10]","EC50 [1, 11]","fold change of EC50, Prohibitin vs Control [1, 12]","fold change of EC50, Prohibitin vs Control [1, 13]","fold change of EC50, Prohibitin vs Control [1, 14]","sensitivity to drug of prohibitin siRNA treated cells compared to mock controls ([1]; MDA, FIGS. 14A-14H)",sensitivity to drug of prohibitin siRNA treated cells [2],"EC50 [2, 15]","fold change of EC50, Prohibitin vs Control ([2]; MCF-7 cells, Table 9)",IC50 ([3]; Table 10 experiment),IC50 ([3]; Table 11 experiment),EC50 ([3]; Table 10 experiment),EC50 ([3]; Table 11 experiment),"fold change of EC50, Prohibitin vs Control ([3]; Table 11 experiment)",also measured
O=C1c2c(O)ccc(O)c2C(=O)c2c(NCCNCCO)ccc(NCCNCCO)c21 [Mitoxantrone],0.11 nM,0.0961 nM,44.1 nM,40.9 nM,0.173 nM,0.409 nM,27.6 nM,26.6 nM,1.6 x,4.2 x,1.5 x,more sensitive,more sensitive,3.94 nM,2.2 x,0.801 nM,0.147 nM,0.358 nM,0.118 nM,1.2 x,"fold change of EC50, Prohibitin vs Control ([1]; Table 7 experiment, direction IS/IR in same cell (E30)): 1.6 x; sensitivity to drug of prohibitin siRNA treated cells compared to mock controls ([1]; MDA, FIGS. 13A-13H): increased the sensitivity"
N[C@@H](Cc1ccc(N(CCCl)CCCl)cc1)C(=O)O [Melphalan],60100 nM,36100 nM,24800 nM,35400 nM,39000 nM,41000 nM,23800 nM,19100 nM,1.5 x,1.1 x,1.8 x,more sensitive,more sensitive,,1.4 x,5790 nM,5950 nM,4540 nM,4560 nM,1.3 x,"sensitivity to drug of prohibitin siRNA treated cells compared to mock-treated cells ([1]; MDA): increased sensitivity; EC50 ([2]; Homo sapiens, MCF7, MCF-7 cells, mock-transfected control, Table 9, read-out: EC50, Control): 14700 nM; EC50 [2, 16]: 10500 nM"
COc1cc([C@@H]2c3cc4c(cc3[C@@H](O[C@@H]3O[C@@H]5CO[C@@H](C)O[C@H]5[C@H](O)[C@H]3O)[C@H]3COC(=O)[C@H]23)OCO4)cc(OC)c1O [Etoposide],78800 nM,83900 nM,9560 nM,9310 nM,,,,,,1.3 x,,,more sensitive,,2.2 x,621 nM,148 nM,611 nM,241 nM,,"IC50 [1, 8]: 76500 nM; IC50 [1, 9]: 63000 nM; IC50 [1, 10]: 10000 nM; IC50 [1, 11]: 9640 nM; sensitivity to drug of prohibitin siRNA treated cells compared to controls ([1]; MDA, FIGS. 10A-10H): more sensitive; EC50 [2, 16]: 7280 nM"
CC[C@]1(O)C[C@H]2CN(CCc3c([nH]c4ccccc34)[C@@](C(=O)OC)(c3cc4c(cc3OC)N(C=O)[C@H]3[C@@](O)(C(=O)OC)[C@H](OC(C)=O)[C@]5(CC)C=CCN6CC[C@]43[C@@H]65)C2)C1 [Vincristin],2840 nM,1480 nM,12.3 nM,12.4 nM,837 nM,18600 nM,,4.3 nM,3.4 x,12.5 x,2.9 x,more sensitive,,350 nM,2.1 x,3.75 nM,3.58 nM,3.17 nM,2.53 nM,1.4 x,"sensitivity to drug of prohibitin siRNA treated cells compared to mock-treated cells ([1]; MDA): increased sensitivity; change in sensitivity to the drug, Prohibitin vs Control ([2]; MCF-7 cells, Table 9): IR (IR: “increased in resistance” to the drug)"
